Results on four compounds are retold here after ChEMBL document CHEMBL5247637, “Rational design, synthesis and biological evaluation of novel 2-(substituted amino)-[1,2,4]triazolo[1,5-a]pyrimidines as novel tubulin polymerization inhibitors” (Eur J Med Chem, 2022).

Assay [1] has as its system A549. The assay is described as follows: Antiproliferative activity against human A549 cells assessed as inhibition of cell growth measured after 48 hrs by MTT assay. To be noted: A549, 48 h. It is filed as functional, cell-based. For orientation: Tetrazolium assays rely on reduction of a dye to a coloured formazan, in cell work by metabolically active cells.
Assay [2] deals with T47D. As to the kind of experiment: Antiproliferative activity against human T47D cells assessed as inhibition of cell growth measured after 48 hrs by MTT assay. It is filed as functional, cell-based.
Assay [3] addresses Tubulin (Homo sapiens) (UniProt P68371+Q9H4B7+P0DPH7+P68366+Q13509+Q71U36+P04350+Q3ZCM7+P07437+P68363+Q9BQE3+Q6PEY2+Q13885+Q9BVA1+Q9BUF5). The assay is described as follows: Inhibition of tubulin polymerization (unknown origin) at 10 uM incubated for 0.5 hrs in presence of GTP by spectrophotometer analysis relative to control. In kind it is protein-complex assay.
The target in assay [4] is Tubulin. The assay is described as follows: Inhibition of tubulin polymerization (unknown origin) incubated for 0.5 hrs in presence of GTP by spectrophotometer analysis. It is filed as protein-complex assay, Homo sapiens.

As a reminder, the IC50 is the concentration that gives 50% inhibition. As to `COc1ccc(/C=C\c2cc(OC)c(OC)c(OC)c2)cc1O` [COMBRETASTATIN A4], the IC50 in assay [1] stood at 0.027 µM; in assay [2], 0.021 µM. Usually inhibition stands for how much of the control response was suppressed. `COc1ccc(C2C(C(C)=O)=C(C)N=C3N=C(c4cc(OC)c(OC)c(OC)c4)NN32)cc1[N+](=O)[O-]` (configuration not stated): the inhibition in assay [3] came to 56%. The IC50 in assay [4] was 9.9 µM. With `COc1ccc(Nc2nc3nccc(-c4cc(OC)c(OC)c(OC)c4)n3n2)cc1O`, the inhibition in assay [3] worked out at 43%. Besides, the IC50 in assay [4] came to 4.9 µM.

For `COc1ccc(Nc2nc3nccc(-c4cc(OC)c(OC)c(OC)c4)n3n2)cc1N`, in assay [3], the inhibition stood at 78%.
